Results taken from paper PMC3781034, “A Small-Animal Pharmacokinetic/Pharmacodynamic PET Study of Central Serotonin 1A Receptor Occupancy by a Potential Therapeutic Agent for Overactive Bladder” (PLoS ONE, 2013).
Where two headings read alike, the source gives them in different places.

How the values were obtained:
PK study in rats (oral) = type: in vivo; conditions: Sprague-Dawley, rat, plasma, 1 mg/kg oral; for AUC(0-t): read-out: AUC0-8hr
Protocol: E2110 was administered orally to male and female SD rats, (4 animals/sex) at a dose of 1 mg/kg. Blood samples were collected from the jugular veins by heparinized syringes at 0.25, 0.5, 1, 2, 4, 6, and 8 hours after dosing.
Concentrations of E2110 were determined in plasma or PBS by liquid chromatography - tandem mass spectrometry. Samples (5 µL) were injected into an L-column ODS (35 × 2.1 mm; 5 µM, Chemical Evaluation and Research Institute, Tokyo, Japan) with a flow rate of 0.6 mL/min. We used 0.1% formic acid in water and acetonitrile as mobile phase A and B, respectively. The gradient elution started with a gradient from 0% to 100% mobile phase B for 2 min, then 1 min of 100% B, followed by a gradient of 100% to 0% for 0.01 min at the end, at a flow rate of 0.6 ml/min. The mass spectrometer (Quattro Ultima-Pt; Micromass, Waters Ltd., Manchester, UK) was operated in a positive ion multiple reaction monitoring mode. E2110 was monitored using mass transitions of 490.4/459.2. Tamsulosin was used as an internal standard, and was monitored using a mass transition of 409.3/200.0. The lower limit of quantification of E2110 in plasma was 0.5 ng/mL.

[1] = Protein binding of E2110 in rat plasma (equilibrium dialysis); type: in vitro ADME
Protocol: The in vitro unbound fraction of […] in male SD rat plasma was quantified by equilibrium dialysis. One mL of the […] spiked sample (100, 1000 and 10000 ng/mL) and phosphate buffered saline (PBS) were applied to one and the other chambers of a dialysis cell, respectively. The cartridge was incubated in a water bath for 24 hr at 37°C. After incubation, aliquots were sampled from both chambers and submitted to determination of the concentration of […] in each matrix by liquid chromatography-tandem mass spectrometry. Unbound fractions for each compound were calculated as the ratio of […] concentration from the PBS side to that from the plasma side of the dialysis apparatus. Concentrations of […] were determined in plasma or PBS by liquid chromatography - tandem mass spectrometry. Samples (5 μL) were injected into an L-column ODS (35 × 2.1 mm; 5 μM, Chemical Evaluation and Research Institute, Tokyo, Japan) with a flow rate of 0.6 mL/min. We used 0.1% formic acid in water and acetonitrile as mobile phase A and B, respectively. […] […] was monitored using mass transitions of 490.4/459.2. Tamsulosin was used as an internal standard, and was monitored using a mass transition of 409.3/200.0. The lower limit of quantification of […] in plasma was 0.5 ng/mL.

## CNC(=O)c1ccc2ccn(C3CCN(CCc4c(OC)ccc5c4OC(C)(C)CC5=O)CC3)c2c1.O=C(O)/C=C/C(=O)O [E2110, 1-{1-[2-(7-Methoxy-2,2-dimethyl-4-oxochroman-8-yl)ethyl]piperidine-4-yl}-N-methyl-1H-indole-6-carboxamide fumarate]
PK study in rats (oral); Female SD
  Cmax: 126 ng/mL
  Tmax: 1 h
  half-life: 2.6 h
  AUC(0-t): 488 ng·h/mL
PK study in rats (oral); Male SD
  Cmax: 48.1 ng/mL
  Tmax: 0.5 h
  half-life: 1.5 h
  AUC(0-t): 71.8 ng·h/mL
[1]; at 0.1, 1 µM
  concentration dependence of binding to plasma proteins: not dependent on its concentration
[1]; male SD rat plasma, equilibrium dialysis 24 hr 37°C
  average percentage of protein-unbound E2110 in plasma: 6%
